Experimental data from article PMC4648982 (Chemistry Central Journal, 2015).
Counter-ions that a name gives are not always drawn.

Biological target: jack bean urease (Canavalia ensiformis, UniProt P07374)
Assay: biochemical
Settings: for urease inhibitory activity in words: in vitro assay, authors' verbal grading
Experimental: Reaction mixture comprising of 25μL of enzyme (jack bean urease) (1 unit/well) solution and 55 μL of phosphate buffers (4 mM) containing 100 mM urea were incubated with 5 μL of test compounds dissolved in methanol (0.5 mM concentration) at 30 °C for 15 min in 96-well plates. Urease activity was determined by measuring ammonia production using the indophenol method as described by Weather burn. Briefly, 45 μl each phenol reagent (1 % w/v phenol and 0.005 % w/v sodium nitroprussside) and 70 μL of alkali reagent(0.5 % w/v NaOH and 0.1 % active chloride NaOCl) were added to each well. The increasing absorbance at 630 nm was measured afther 50 min, using a microplate reader (Molecular Device, USA). All reactions were performed in triplicate in a final volume of 200 μL. The results (change in absorbance per min) were processed by using softMax Pro software (molecular Device, USA). The entire assays were performed at pH 6.8. Percentage inhibitions were calculated from the formula 100 − (ODtestwell/ODcontrol) × 100. Thiourea was used as the standard inhibitor of urease.

Chain of jack bean urease (P07374 whole entry, looked up): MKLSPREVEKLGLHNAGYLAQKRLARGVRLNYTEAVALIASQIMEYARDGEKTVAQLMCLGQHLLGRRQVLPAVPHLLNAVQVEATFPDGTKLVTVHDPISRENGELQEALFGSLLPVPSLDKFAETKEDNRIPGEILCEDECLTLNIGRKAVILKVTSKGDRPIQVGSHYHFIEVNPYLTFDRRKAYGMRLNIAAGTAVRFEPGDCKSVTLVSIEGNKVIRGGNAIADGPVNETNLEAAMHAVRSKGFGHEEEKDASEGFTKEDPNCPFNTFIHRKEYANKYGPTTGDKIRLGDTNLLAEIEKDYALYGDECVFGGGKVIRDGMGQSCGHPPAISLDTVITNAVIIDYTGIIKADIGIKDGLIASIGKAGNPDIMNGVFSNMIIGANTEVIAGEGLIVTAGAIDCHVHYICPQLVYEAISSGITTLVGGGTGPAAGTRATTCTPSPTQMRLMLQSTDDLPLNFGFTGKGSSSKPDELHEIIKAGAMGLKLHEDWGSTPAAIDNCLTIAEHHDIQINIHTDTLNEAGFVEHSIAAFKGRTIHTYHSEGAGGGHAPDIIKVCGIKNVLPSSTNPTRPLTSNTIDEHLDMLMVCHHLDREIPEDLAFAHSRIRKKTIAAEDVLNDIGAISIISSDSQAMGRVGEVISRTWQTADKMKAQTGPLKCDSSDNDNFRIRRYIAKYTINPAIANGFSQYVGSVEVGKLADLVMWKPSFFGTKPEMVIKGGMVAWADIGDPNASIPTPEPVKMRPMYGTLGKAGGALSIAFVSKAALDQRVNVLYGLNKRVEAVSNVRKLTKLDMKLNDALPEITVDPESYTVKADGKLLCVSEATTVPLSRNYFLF

`Cn1c(O)c(C(c2ccc([N+](=O)[O-])cc2)c2c(O)n(C)c(=O)n(C)c2=O)c(=O)n(C)c1=O` [Compound 4c, 5,5′-((4-Nitrophenyl)methylene)bis(1,3-dimethylpyrimidine-2,4,6(1H,3H,5H)-trione)diethylaminium salt] showed an IC50 of 54.2 ± 0.47 µM.
`CC1(C)CC(=O)C(C(C2=C(O)CC(C)(C)CC2=O)c2cccc([N+](=O)[O-])c2)=C(O)C1` [Compound 5h, 2-((2-Hydroxy-4,4-dimethyl-6-oxocyclohex-1-en-1-yl)(3-nitrophenyl)methyl)-5,5-dimethyl-3-oxocyclohex-1-enolate diethylaminium salt] was tested, and the IC50 was 49 ± 0.55 µM and the “urease inhibitory activity in words” value was “good urease inhibitory activity”.
`Cn1c(O)c(C(C2=C(O)CC(C)(C)CC2=O)c2ccc(O)cc2)c(=O)n(C)c1=O` (stereo not shown) [Compound 4v, 5-((2-Hydroxy-4,4-dimethyl-6-oxocyclohex-1-en-1-yl)(4-hydroxyphenyl)methyl)-1,3-dimethyl-2,6-dioxo-1,2,3,6-tetrahydropyrimidin-4-olate diethylaminium salt] showed an IC50 of 52.2 ± 1.26 µM.
Work on `Cc1ccc(C(C2=C(O)CC(C)(C)CC2=O)c2c(O)n(C)c(=O)n(C)c2=O)cc1` (stereo not shown) [Compound 4n, 5-((2-Hydroxy-4,4-dimethyl-6-oxocyclohex-1-en-1-yl)(p-tolyl)methyl)-1,3-dimethyl-2,6-dioxo-1,2,3,6-tetrahydropyrimidin-4-olate diethylaminium salt] yielded an IC50 of 41.2 ± 0.58 µM.
For `CC1(C)CC(=O)C(C(C2=C(O)CC(C)(C)CC2=O)c2ccccc2[N+](=O)[O-])=C(O)C1` [Compound 5i, 2-((2-Hydroxy-4,4-dimethyl-6-oxocyclohex-1-en-1-yl)(2-nitrophenyl)methyl)-5,5-dimethyl-3-oxocyclohex-1-enolate diethylaminium salt], the IC50 was 210.1 ± 0.29 µM and the “urease inhibitory activity in words” value was “inactivity”.
For `O=c1[nH]c(O)c(C(c2ccc3ccccc3c2)c2c(O)[nH]c(=O)[nH]c2=O)c(=O)[nH]1` [Compound 4l, 5,5′-(Naphthalen-2-ylmethylene)bis(6-hydroxypyrimidine-2,4(1H,3H)-dione) diethylaminium salt], the IC50 was 22.7 ± 0.2 µM.
Compound `Cc1ccc(C(c2c(O)n(C)c(=O)n(C)c2=O)c2c(O)n(C)c(=O)n(C)c2=O)cc1` [Compound 4g, 5,5′-(p-Tolylmethylene)bis(1,3-dimethylpyrimidine-2,4,6(1H,3H,5H)-trione) diethylaminium salt] has an IC50 of 28.5 ± 0.41 µM.
With `Cc1ccc(C(c2c(O)[nH]c(=O)[nH]c2=O)c2c(O)[nH]c(=O)[nH]c2=O)cc1` [Compound 4i, 5,5′-(p-Tolylmethylene)bis(6-hydroxypyrimidine-2,4(1H,3H)-dione) diethylaminium salt] the IC50 was 17.6 ± 0.23 µM and the “urease inhibitory activity in words” value was “most active”.
Work on `Cn1c(O)c(C(C2=C(O)CC(C)(C)CC2=O)c2ccc3ccccc3c2)c(=O)n(C)c1=O` (stereo not shown) [Compound 4z, 5-((2-Hydroxy-4,4-dimethyl-6-oxocyclohex-1-en-1-yl)(naphthalen-2-yl)methyl)-1,3-dimethyl-2,6-dioxo-1,2,3,6-tetrahydropyrimidin-4-olate diethylaminium salt] yielded an IC50 of 39.8 ± 1.38 µM.
`CC1(C)CC(=O)C(C(c2ccccc2)c2c(O)[nH]c(=O)[nH]c2=O)=C(O)C1` (stereo not shown) [Compound 5n, 5-((2-Hydroxy-4,4-dimethyl-6-oxocyclohex-1-en-1-yl)(phenyl)methyl)-2,6-dioxo-1,2,3,6-tetrahydropyrimidin-4-olate diethylaminium salt] was tested, and the IC50 was 23.7 ± 0.57 µM and the “urease inhibitory activity in words” value was “active”.
For `CC1(C)CC(=O)C(C(C2=C(O)CC(C)(C)CC2=O)c2ccccc2)=C(O)C1` [Compound 5a, 2-((2-Hydroxy-4,4-dimethyl-6-oxocyclohex-1-en-1-yl)(phenyl)methyl)-5,5-dimethyl-3-oxocyclohex-1-enolate diethylaminium salt], the IC50 was 74.5 ± 0.88 µM.
In the case of `Cn1c(O)c(C(c2ccc(C=O)cc2)c2c(O)n(C)c(=O)n(C)c2=O)c(=O)n(C)c1=O` [Compound 4a, 4-(bis(6-Hydroxy-1,3-dimethyl-2,4-dioxo-1,2,3,4-tetrahydropyrimidin-5-yl)methyl)benzaldehyde diethylaminium salt], the IC50 is reported as 39.3 ± 0.36 µM.
